Assay results: patent US8269022B2, “Polymorphs of enantiopure erdosteine” (Edmond Pharma S.R.L, priority 2007, dated 2012)

Key:
[1] = Flowability test (flow through the funnel); assay type: physicochemical; settings: for Flowing time (mean value): flowability comparison, powder
Description: These advantages will be clearer by considering the following comparison between Form I of S-Erdosteine and the amorphous racemic form. […] Conversely, Form I has a mean flowing time of about 35 seconds, which allows to handle and transfer the powder more easily, and to avoid the use or reduce the amount of glidants in the finished pharmaceutical formulation.

[2] = Dissolution rate test (Intrinsic Dissolution Rate) of 150 mg tablets in 0.1M hydrochloric acid; assay type: physicochemical; settings: FIG. 10
Experimental: A dissolution rate test was performed in order to define the Intrinsic Dissolution Rate of Erdosteine Form I and Racemic Erdosteine. Six thin 150 mg tablets of S-erdosteine Form I and six 150 mg tablets of racemic Erdosteine were prepared by compression with a 10 ton press and their dissolution profile in 0.1M hydrochloric acid was evaluated. The two profiles are reported in FIG. 10, superimposed on the same graph. As can be clearly seen, the dissolution profile of Form I is very different from that of racemic, non-polymorphic Erdosteine. In fact, after 15 minutes more than 80% Form I is dissolved, while more that 25 minutes are necessary to dissolve 40% racemic Erdosteine. The higher solubility of Form I allows to obtain an improved pharmaceutical form in terms of dosage and bioavailability.

O=C(O)CSCC(=O)NC1CCSC1=O (racemic) [Racemic Erdosteine]
Flowing time (mean value) [1]: ∞
flowability (flow through the funnel) ([1]; result in words): does not flow through the funnel
time necessary to dissolve 40% [2]: > 25 min

O=C(O)CSCC(=O)NC1CCSC1=O (stereo not drawn) [Erdosteine Form I]
Flowing time (mean value) [1]: 35.6″
mean flowing time ([1]; powder through the funnel): about 35 seconds
amount dissolved ([2]; after 15 minutes): more than 80%
